Consider eleven compounds from patent US11560371B2, “Cereblon binding compounds, compositions thereof, and methods of treatment therewith” (Celgene Corporation, priority 2020, dated 2023).

Structures can show the parent of a compound that is named as a salt.

In this assay the target is T1, AR (Homo sapiens, UniProt P10275).
T1 construct: endogenous in cells; host or cells: VCaP cells
T1 sequence (P10275 1-920): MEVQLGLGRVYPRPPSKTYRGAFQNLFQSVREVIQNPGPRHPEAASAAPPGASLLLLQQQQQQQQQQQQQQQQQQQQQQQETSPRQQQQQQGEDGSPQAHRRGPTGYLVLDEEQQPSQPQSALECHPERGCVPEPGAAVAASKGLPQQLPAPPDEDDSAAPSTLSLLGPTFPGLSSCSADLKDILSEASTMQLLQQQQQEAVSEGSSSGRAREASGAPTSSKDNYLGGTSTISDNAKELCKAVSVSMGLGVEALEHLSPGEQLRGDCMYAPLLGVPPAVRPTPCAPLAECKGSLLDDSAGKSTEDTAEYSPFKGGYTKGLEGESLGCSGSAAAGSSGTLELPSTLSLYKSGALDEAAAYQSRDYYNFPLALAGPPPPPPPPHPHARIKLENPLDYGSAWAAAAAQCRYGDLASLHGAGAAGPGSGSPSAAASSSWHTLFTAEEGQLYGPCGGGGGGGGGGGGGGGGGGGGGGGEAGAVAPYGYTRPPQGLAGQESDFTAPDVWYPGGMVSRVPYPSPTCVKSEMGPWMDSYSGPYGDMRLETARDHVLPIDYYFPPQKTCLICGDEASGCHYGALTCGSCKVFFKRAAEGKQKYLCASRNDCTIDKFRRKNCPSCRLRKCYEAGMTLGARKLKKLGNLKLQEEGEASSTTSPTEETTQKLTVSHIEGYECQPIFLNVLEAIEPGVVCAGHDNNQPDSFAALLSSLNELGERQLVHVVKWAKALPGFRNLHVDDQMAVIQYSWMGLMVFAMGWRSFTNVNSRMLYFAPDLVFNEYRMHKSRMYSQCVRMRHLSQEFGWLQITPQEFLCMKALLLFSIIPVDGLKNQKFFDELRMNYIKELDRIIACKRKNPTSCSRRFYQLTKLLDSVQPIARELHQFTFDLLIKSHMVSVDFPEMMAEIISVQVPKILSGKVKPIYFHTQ
Nature of the assay: VCAP AR Degradation Assay. The following applies: VCaP cells, 24 h, AR ELISA; for DC50: concentration of compound when AR level = 50% of DMSO control (50% AR degradation); for Y: lowest measured AR level normalized to DMSO control (AR degradation efficiency). The assay is classed as cell-based. How it is done: VCAP AR Degradation Assay. Test compounds were pre-dispensed into a Corning CellBind 96-well clear bottom plate (Cat #3300) using an acoustic dispenser to make a 10-point concentration series at 1:3 dilution for each compound. The final top concentration of each compound was 5 μM. DMSO at a final concentration of 0.1% was used as a control. VCaP cells cultured in DMEM with 8% fetal bovine serum (FBS) were seeded at 50K cells per well in a 200 μL volume into the compound plate and incubated at 37° C. in a CO2 incubator for 24 h. The medium was carefully removed from the cells and the plate was placed on ice. […] ice-cold 1× cell lysis buffer from Cell Signaling Technologies (Cat #9803) was added to each well of the cells and the plate was incubated at 4° C. on a shaker for 1 h. Fifteen μL of cell lysate was used for AR ELISA detection using a PathScan Total Sandwich AR ELISA kit (Cell Signaling Technology, Cat #12580). AR levels in compound-treated wells were normalized to that of DMSO control and expressed as percent of control (PoC) (y). A Four Parameter Logistic Model (Sigmoidal Dose-Response Model) was used to determine the compound's DC50, and EC50, using the following equation: y=(A+((B−A)/(1+((C/x)^D)))) • A=YMin (lowest AR level normalized to DMSO control in response to compound treatment, as determined by curve fit) • B=YMax (maximum AR level as determined by curve fit) • C=EC50 • D=Hill Slope • x=compound concentration • EC50=the concentration of compound when y=[…] • DC50=the concentration of the compound when y=50% of DMSO control (50% AR degradation) • y=AR protein level normalized to DMSO control
The lowest measured AR level normalized to DMSO control in response to compound treatment, termed Y value, was used to characterize the compound-mediated AR degradation efficiency.
On the technique in general: An ELISA detects its analyte on a solid surface through an enzyme-linked reagent.

The term DC50 denotes the midpoint of the concentration-degradation curve. High values mean a less potent degrader, low ones a more potent degrader. `C[C@@H]1CN(CCC[C@H]2CC[C@H](N3C(=S)N(c4ccc(C#N)c(C(F)(F)F)c4)C(=O)C3(C)C)CC2)C[C@H](C)N1CC(=O)Nc1cccc2c(N3CCC(=O)NC3=O)nn(C)c12` [Cmpd 2, 2-((2R,6S)-4-(3-(trans-4-(3-(4-Cyano-3-(trifluoromethyl)phenyl)-5,5-dimethyl-4-oxo-2-thioxoimidazolidin-1-yl)cyclohexyl)propyl)-2,6-dimethylpiperazin-1-yl)-N-(3-(2,4-dioxotetrahydropyrimidin-1(2H)-yl)-1-methyl-1H-indazol-7-yl)acetamide hydrochloride]: the 50% degradation concentration (DC50) is 2 to 10 nM and the Y result is “** (20%<Y≤%)”.
On the same counts, the results for `Cn1nc(N2CCC(=O)NC2=O)c2cccc(NC(=O)CN3CCN(CCC[C@H]4CC[C@H](N5C(=S)N(c6cnc(C#N)c(C(F)(F)F)c6)C(=O)C5(C)C)CC4)C[C@@H]3C(F)(F)F)c21` [Cmpd 22, 2-((R)-4-(3-(trans)-4-(3-(6-cyano-5-(trifluoromethyl)pyridin-3-yl)-5,5-dimethyl-4-oxo-2-thioxoimidazolidin-1-yl)cyclohexyl)propyl)-2-(trifluoromethyl)piperazin-1-yl)-N-(3-(2,4-dioxotetrahydropyrimidin-1(2H)-yl)-1-methyl-1H-indazol-7-yl)acetamide hydrochloride] are 2 to 10 nM and “* (0<Y≤20%)”.
As to `Cn1nc(N2CCC(=O)NC2=O)c2cccc(NC(=O)CN3CCC(CCO[C@H]4CC[C@H](N5C(=S)N(c6cnc(C#N)c(C(F)(F)F)c6)C(=O)C5(C)C)CC4)C(F)(F)C3)c21` (stereo partly drawn) [Cmpd 36, 2-(4-(2-(((trans)-4-(3-(6-Cyano-5-(trifluoromethyl)pyridin-3-yl)-5,5-dimethyl-4-oxo-2-thioxoimidazolidin-1-yl)cyclohexyl)oxy)ethyl)-3,3-difluoropiperidin-1-yl)-N-(3-(2,4-dioxotetrahydropyrimidin-1(2H)-yl)-1-methyl-1H-indazol-7-yl)acetamide], the 50% degradation concentration (DC50) is not above 2 nM and the Y result is reported as “* (0<Y≤20%)”.
Consider `Cn1nc(N2CCC(=O)NC2=O)c2cccc(NC(=O)CN3CCC(CCO[C@H]4CC[C@H](N5C(=S)N(c6ccc(C#N)c(C(F)(F)F)c6)C(=O)C5(C)C)CC4)C(F)(F)C3)c21` (stereo partly drawn) [Cmpd 35, 2-(4-(2-(((trans)-4-(3-(4-Cyano-3-(trifluoromethyl)phenyl)-5,5-dimethyl-4-oxo-2-thioxoimidazolidin-1-yl)cyclohexyl)oxy)ethyl)-3,3-difluoropiperidin-1-yl)-N-(3-(2,4-dioxotetrahydropyrimidin-1(2H)-yl)-1-methyl-1H-indazol-7-yl)acetamide], for which the DC50 is not above 2 nM and the Y entry was “* (0<Y≤20%)”.
For `C[C@@H]1CN(CCCO[C@H]2CC[C@H](N3C(=S)N(c4cnc(C#N)c(C(F)(F)F)c4)C(=O)C3(C)C)CC2)C[C@H](C)N1CC(=O)Nc1cccc2c(N3CCC(=O)NC3=O)nn(C)c12` [Cmpd 7, 2-((2R,6S)-4-(3-((trans-4-(3-(6-Cyano-5-(trifluoromethyl)pyridin-3-yl)-5,5-dimethyl-4-oxo-2-thioxoimidazolidin-1-yl)cyclohexyl)oxy)propyl)-2,6-dimethylpiperazin-1-yl)-N-(3-(2,4-dioxotetrahydropyrimidin-1(2H)-yl)-1-methyl-1H-indazol-7-yl)acetamide hydrochloride] the same measures were not above 2 nM and “** (20%<Y≤%)”.
On to `C[C@@H]1CN(CCC[C@H]2CC[C@H](N3C(=S)N(c4cnc(C#N)c(Cl)c4)C(=O)C3(C)C)CC2)C[C@H](C)N1CC(=O)Nc1cccc2c(N3CCC(=O)NC3=O)nn(C)c12` [Cmpd 12, 2-((2R,6S)-4-(3-(trans-4-(3-(5-Chloro-6-cyanopyridin-3-yl)-5,5-dimethyl-4-oxo-2-thioxoimidazolidin-1-yl)cyclohexyl)propyl)-2,6-dimethylpiperazin-1-yl)-N-(3-(2,4-dioxotetrahydropyrimidin-1(2H)-yl)-1-methyl-1H-indazol-7-yl)acetamide hydrochloride], for which the DC50 was in the range of 2 to 10 nM and the Y entry is on record as “** (20%<Y≤%)”.
For the compound `C[C@@H]1CN(CCO[C@H]2CC[C@H](N3C(=S)N(c4ccc(C#N)c(S(F)(F)(F)(F)F)c4)C(=O)C3(C)C)CC2)C[C@H](C)N1CC(=O)Nc1cccc2c(N3CCC(=O)NC3=O)nn(C)c12` [Cmpd 21, 2-((2S,6R)-4-(2-((trans-4-(3-(4-Cyano-3-(pentafluoro-λ^6-sulfaneyl)phenyl)-5,5-dimethyl-4-oxo-2-thioxoimidazolidin-1-yl)cyclohexyl)oxy)ethyl)-2,6-dimethylpiperazin-1-yl)-N-(3-(2,4-dioxotetrahydropyrimidin-1(2H)-yl)-1-methyl-1H-indazol-7-yl)acetamide hydrochloride], the DC50 was 100 to 10000 nM and the Y entry is “*** (30%<Y<60%)”.
With `C[C@@H]1C[C@H](OCCO[C@H]2CC[C@H](N3C(=S)N(c4cnc(C#N)c(C(F)(F)F)c4)C(=O)C3(C)C)CC2)C[C@H](C)N1CC(=O)Nc1cccc2c(N3CCC(=O)NC3=O)nn(C)c12` [Cmpd 34, 2-((2R,4r,6S)-4-(2-(((trans)-4-(3-(6-Cyano-5-(trifluoromethyl)pyridin-3-yl)-5,5-dimethyl-4-oxo-2-thioxoimidazolidin-1-yl)cyclohexyl)oxy)ethoxy)-2,6-dimethylpiperidin-1-yl)-N-(3-(2,4-dioxotetrahydropyrimidin-1(2H)-yl)-1-methyl-1H-indazol-7-yl)acetamide], the half-maximal degradation concentration (DC50) is not above 2 nM and the Y entry was “** (20%<Y≤%)”.
On the same counts, the results for `C[C@@H]1CN(CCCC[C@H]2CC[C@H](N3C(=S)N(c4ccc(C#N)c(C(F)(F)F)c4)C(=O)C3(C)C)CC2)C[C@H](C)N1CC(=O)Nc1cccc2c(N3CCC(=O)NC3=O)nn(C)c12` [Cmpd 17, 2-((2R,6S)-4-(4-(trans-4-(3-(4-Cyano-3-(trifluoromethyl)phenyl)-5,5-dimethyl-4-oxo-2-thioxoimidazolidin-1-yl)cyclohexyl)butyl)-2,6-dimethylpiperazin-1-yl)-N-(3-(2,4-dioxotetrahydropyrimidin-1(2H)-yl)-1-methyl-1H-indazol-7-yl)acetamide hydrochloride] are 2 to 10 nM and “** (20%<Y≤%)”.
On the same counts, the results for `Cn1nc(N2CCC(=O)NC2=O)c2cccc(NC(=O)CN3CCN(CCCO[C@H]4CC[C@H](N5C(=S)N(c6cnc(C#N)c(C(F)(F)F)c6)C(=O)C5(C)C)CC4)C[C@@H]3C(F)(F)F)c21` [Cmpd 24, 2-((R)-4-(3-(((trans)-4-(3-(6-cyano-5-(trifluoromethyl)pyridin-3-yl)-5,5-dimethyl-4-oxo-2-thioxoimidazolidin-1-yl)cyclohexyl)oxy)propyl)-2-(trifluoromethyl)piperazin-1-yl)-N-(3-(2,4-dioxotetrahydropyrimidin-1(2H)-yl)-1-methyl-1H-indazol-7-yl)acetamide] are not above 2 nM and “* (0<Y≤20%)”.
For `C[C@@H]1CN(CCO[C@H]2CC[C@H](N3C(=S)N(c4ccc(C#N)c(C(F)(F)F)c4)C(=O)C3(C)C)CC2)C[C@H](C)N1CCOc1cccc2c(N3CCC(=O)NC3=O)nn(C)c12` [Cmpd 15, 4-(3-(trans-4-(2-((3R,5S)-4-(2-((3-(2,4-Dioxotetrahydropyrimidin-1(2H)-yl)-1-methyl-1H-indazol-7-yl)oxy)ethyl)-3,5-dimethylpiperazin-1-yl)ethoxy)cyclohexyl)-4,4-dimethyl-5-oxo-2-thioxoimidazolidin-1-yl)-2-(trifluoromethyl)benzonitrile hydrochloride] the same measures were 100 to 10000 nM and “** (20%<Y≤%)”.
